Source: US20060058346A1, “Novel enantiomers of etrahydroisoquinoline derivatives and theirpharmaceutically acceptable salts, their preparations and pharmaceutical compositions” (priority 2002, published 2006)
Read-outs that look alike come from different tables or passages of the source.

Experiments:
right auricle muscle = assay: Heart rates (beats) of right auricle muscle excised from rats; design: species or system rat; details: for Heart Rates of Auricle Muscles: vehicle control:100%
Procedure: (§1) Immediately after Sprague-Dawley rats (female or male) were anaesthetized with pentobarbital sodium (50 mg/kg, i.m.), the thorax was opened to excise the heart. The heart was submerged in Krebs solution, and left auricle muscle and right auricle muscle were then isolated. The left auricle muscle was placed in an organ bath for recording of contractile force, and applied with electrical field stimulation (voltage 10% higher than threshold voltage, 1 Hz frequency, 5 ms duration). In the case of right auricle muscle, which contracts spontaneously, the number of continuous beats was recorded. In this experiment, to measure contractile fore of the two auricle muscles, the organ bath was warmed to 37° C., and as a physiological solution, Krebs solution (119.8 mM NaCl, 4.6 mM KCl, 2.5 mM CaCl2, 1.2 mM MgCl2, 25 mM NaHCO3, 1.2 mM KH2PO4, 10 mM glucose, 1 mM EDTA, pH 7.4) was used. The Krebs solution (pH 7.4) was continuously saturated with a gas mixture of 95% O2 and 5% CO2. The auricle muscle was under a tension of 1 g, and Krebs solution was exchanged with fresh solution at intervals of 20 minutes while equilibrium was maintained during a recording period of 60 minutes.

[1] = Acute toxicity in rat (LD50); format: in vivo; details: Sprague-Dawley, in vivo
Procedure: Sprague-Dawley rats (six weeks) were used as test sample. Each group was comprised of two rats. […] The said emulsion was administered to two rats one times using intravenous injection and intraperitoneal injection.

[2] = tested on: rat with DIC and MOF induced by endotoxin; assay: Endotoxin-induced DIC and multiple organ failure in rat; format: in vivo; details: for platelet concentration compared with LPS only: FIG. 2
Procedure: Rats (Crj:CD(SD); 250±20 g) were used to test sample. Before the compound was administered, the rat was not fed. The compound was orally administered one time per day for two days in an amount of 10 mg˜25 mg/10 ml/kg/day. Distilled water (control group and LPS group) or enantiomer was administered to the rat repeatedly. After one hour, rat was anaesthetized with intramuscular injection of 50 mg/kg of pentobarbital. […] Thereafter, 50 mg/kg of pentobarbital was injected at 2 hour to the rat by intramuscular injection. Therefore, the rat was anaesthetized for all the experiment and operation.
The blood (2 ml for FDP and 6 ml for other variables) was collected from abdominal artery using a plastic syringe, into glass tube containing soy bean trypsin inhibitor and Bothrops atrox venom to measure FDP and into plastic tube containing 2.2% sodium citrate (1/10, volume/volume). The aggregated blood was centrifuged at 1200×g for 5 minutes two times. Before measurement of FDP, the supernatant was stored at freezer for at least 12 hours. Citrated blood was centrifuged at 2000×g for 30 minutes. The supernatant was used for measurement of fibrinogen and PT or APTT time. The aggregated blood collected in glass tube was disposed at the room temperature for 30 min, centrifuged to give the serum for measurement of AST and BUN.
Platelet from total citrated blood was counted by using automatic platelet counter (PLT-4, Texas International Lab.) PT or APTT time was measured by Beckton Dickenson BBL Fibrosystem (Coctkeysville, USA). FDP analysis was accomplished by using Thrombo-wellcotest kit. The said analysis was accomplished by up and down dilution method semi-quantitatively. Measurement of AST and BUN was accomplished by using Autobiochemical analyzer (Hitach 747, Japan).

[3] = tested on: RAW 264.7 macrophage cells; assay: Nitric oxide production in macrophage cell stimulated by LPS (Griess); format: cell-based; details: for inhibition of production of NO: LPS-stimulated macrophage cell; for NO production by LPS in macrophage cell: LPS 1 μg/ml
Procedure: RAW 264.7 macrophage cells were plated on 100 mm culture dishes at a density of 1-2×10^5 cells. Thereafter, the said macrophage cell was incubated in DMEM medium containing 10% fetal calf serum (heat-inactivated), 100 U/ml penicillin, and […] streptomycin in a CO2 incubator. The said macrophage cell was incubated therein confluently. The said incubated macrophage cells were transferred to serum-free DMEM medium, and further incubated therein for about 24 hours. Thereafter, macrophage cells were stimulated with LPS (1 μg/ml) for about 8 hours. (In this progress, experimental group was divided into two groups, group to which the compound was administered, and group to which the compound was not.) Then, nitrite quantification was achieved by performing calorimetric reaction for produced nitrite with Griess reagent and then measuring absorbance at 550 nm, while using NaNO2 as a standard.

left auricle muscle = assay: Contractile force of left auricle muscle excised from rats; design: species or system rat; details: for Contractile Force of Auricle Muscles: vehicle control:100%
Procedure: as §1

rat PRP = assay: Inhibition of platelet aggregation in rat PRP; format: cell-based; details: for IC50: Platelet, rat PRP
Procedure: Male rat (weighing 200±20 g) was anaesthetized with ether. The blood (nine volumes) was collected from heart using a plastic syringe containing 2.2% sodium citrate (one volume). The collected blood was centrifuged at 200×g for 10 minutes to give supernatant platelet-rich plasma (PRP). The residue was centrifuged again at 700×g for 30 minutes, giving platelet-poor plasma (PPP) for experiment. We used a platelet analyzer to count the number of platelet of the PRP. PRP was diluted with physiological saline solution to prepare solution containing platelets in an amount of 400-450×10^6/ml. The inhibitory effects of the compound represented by formulas 3 to 8 was evaluated by platelet aggregation analyzer, and the inhibitory effect of each compound is given as % below. That is, after PRP was incubated for 3 minutes at 37° C., the compounds or a carrier was added thereto, and after 1 min, platelet aggregation-inducing agent such as ADP, collagen, arachidonic acid (AA), U46619 or epinephrine was added thereto, followed by investigation of turbidity caused by aggregation of platelets. % Inhibition=A−B/A×100 [arithmetic formula 1] • (A: Platelet aggregation rate in group treated with an aggregation-inducing agent; • B: Platelet aggregation rate in group treated with both an aggregation-inducing agent and the enantiomers simultaneously)

[4] = ip, single intraperitoneal injection, read-out: LD50, Intraperitioneal injection
[5] = single intravenous injection, read-out: LD50, Intravenous injection
[6] = ADP 2 − 5 × 10^−6 M, read-out: IC50 platelet aggregation, ADP
[7] = U46619 1.5 × 10^−6 M with threshold collagen, read-out: IC50 platelet aggregation, U46619
[8] = arachidonic acid 1 − 4 × 10^−5 M with threshold collagen, read-out: IC50 platelet aggregation, AA
[9] = collagen 2 − 5 × 10^−6 g/ml, read-out: IC50 platelet aggregation, collagen
[10] = epinephrine 1 − 4 × 10^−6 M with threshold collagen, read-out: IC50 platelet aggregation, Epinephrine

| Structure (SMILES) | effect on heart rates of auricle muscles (right auricle muscle) | Heart Rates of Auricle Muscles (right auricle muscle; 1 × 10^−4 M) | Heart Rates of Auricle Muscles (right auricle muscle; 1 × 10^−5 M) | Heart Rates of Auricle Muscles (right auricle muscle; 1 × 10^−6 M) | Heart Rates of Auricle Muscles (right auricle muscle; 1 × 10^−7 M) | Heart Rates of Auricle Muscles (right auricle muscle; 3 × 10^−5 M) | Heart Rates of Auricle Muscles (right auricle muscle; 3 × 10^−6 M) | Heart Rates of Auricle Muscles (right auricle muscle; 3 × 10^−7 M) | LD50 [1, 4] | LD50 [1, 5] | platelet concentration compared with LPS only [2] | inhibition of production of NO [3] | NO production by LPS in macrophage cell ([3]; compound 10 μM) | NO production by LPS in macrophage cell ([3]; compound 50 μM) | NO production by LPS in macrophage cell ([3]; compound 100 μM) | effect on contractile force of auricle muscles (left auricle muscle) | Contractile Force of Auricle Muscles (left auricle muscle; 1 × 10^−4 M) | Contractile Force of Auricle Muscles (left auricle muscle; 1 × 10^−5 M) | Contractile Force of Auricle Muscles (left auricle muscle; 1 × 10^−6 M) | Contractile Force of Auricle Muscles (left auricle muscle; 1 × 10^−7 M) | further results |
| --- | --- | --- | --- | --- | --- | --- | --- | --- | --- | --- | --- | --- | --- | --- | --- | --- | --- | --- | --- | --- | --- |
| Oc1cc2c(cc1O)[C@H](Cc1ccc3ccccc3c1)NCC2 [Formula 7, (S)-6,7-Dihydroxy-1-(β-naphthylmethyl)-1,2,3,4-tetrahydroisoquinoline] | strongly stimulated | 180% | 175% | 165% | 150% | 180% | 170% | 160% | 376 mg/kg | 184 mg/kg | higher | strongly inhibited production of NO | 31.2 µM | 15.2 µM | 9.4 µM | strongly increased | 380% | 350% | 250% | 120% | serum level of FDP compared with R-configuration ([2]; 10 mg/kg, FIG. 4): lower; Contractile Force of Auricle Muscles (left auricle muscle; 3 × 10^−5 M): 380%; Contractile Force of Auricle Muscles (left auricle muscle; 3 × 10^−6 M): 315%; Contractile Force of Auricle Muscles (left auricle muscle; 3 × 10^−7 M): 170%; IC50 (rat PRP; [6]): 460 µM; IC50 (rat PRP; [7]): 61 µM; IC50 (rat PRP; [8]): 62 µM; IC50 (rat PRP; [9]): 150 µM; IC50 (rat PRP; [10]): 0.9 µM; inhibitory effect on epinephrine-induced platelet aggregation, times as strong as R-enantiomer (rat PRP; epinephrine, S versus R): about seventeen times as strong; inhibitory effect on epinephrine-induced platelet aggregation, times as strong as racemic mixture (rat PRP; epinephrine, S versus racemic mixture): about five times as strong |
| Oc1cc2c(cc1O)[C@@H](Cc1ccc3ccccc3c1)NCC2 [Formula 8, (R)-6,7-Dihydroxy-1-(β-naphthylmethyl)-1,2,3,4-tetrahydroisoquinoline] | no effect | 105% | 105% | 100% | 100% | 105% | 100% | 100% | 214 mg/kg | 80 mg/kg | higher | never or slightly inhibited production of NO | 46 µM | 42 µM | 40 µM | no effect | 105% | 100% | 100% | 100% | Contractile Force of Auricle Muscles (left auricle muscle; 3 × 10^−5 M): 105%; Contractile Force of Auricle Muscles (left auricle muscle; 3 × 10^−6 M): 100%; Contractile Force of Auricle Muscles (left auricle muscle; 3 × 10^−7 M): 100%; IC50 (rat PRP; [6]): 540 µM; IC50 (rat PRP; [7]): 49 µM; IC50 (rat PRP; [8]): 7.9 µM; IC50 (rat PRP; [9]): 150 µM; IC50 (rat PRP; [10]): 15 µM |
